Series [1] has as its target T1, hTRPA1 (Homo sapiens, UniProt O75762).
T1 construct: expressed in transfected cells; host or cells: HEK293, transient transfection, pMO vector
The experiment in a line: whole-cell patch clamp selectivity, HEK 293 cells overexpressing hTRPA1. The series is classed as cell-based. To be noted: HEK293, with agonist, solutions without Ca2+, read-out: % of the current of hTRPA1 inhibited. As for the experimental part: Human embryonic kidney 293 (HEK293; catalog number CRL-1573) cells were cultured in Dulbecco's modified Eagle's medium (Invitrogen) supplemented with 10% fetal bovine serum and 1% penicillin-streptomycin at 37° C. and 5% CO2. Constructs cloned in pMO (a pcDNA3-modified vector) were co-transfected with GFP-pMO, using Lipofectamine 2000 (Invitrogen) according to the manufacturer's instructions. Macroscopic currents in the whole-cell patch clamp configuration were recorded 18-24 h post-transfection. The extracellular solution contained 140 mM NaCl, 6 mM KCl, 2 mM MgCl2, 10 mM HEPES, and 10 mM glucose (pH 7.4). Pipettes were made of borosilicate glass (outer diameter, 1.5 mm; inner diameter, 1.10 mm; Sutter Instruments) and fire-polished with a resistance between 2.8 and 4.0 megaohms when filled with an intracellular solution that contained 140 mM CsCl, 5 mM EGTA, and 10 mM HEPES, pH 7.2. Currents were recorded with a Multiclamp 700B amplifier (Molecular Devices) using a 1-s ramp from −100 to 100 mV. […] Data were acquired with a sampling rate of 20 kHz, low-pass filtered (10 kHz), and analyzed offline using Clampfit v10.4.2.0 (Molecular Devices). […]
In general terms: Patch clamp records ionic current or voltage across a cell membrane.

The test system of series [2] is hippocampal neurons. Nature of the series: neuroprotection against Aβ-containing conditioned medium (7PA2) in primary hippocampal neurons. Type of series: cell-based, rat. To be noted: 14 DIV neurons, 7PA2 medium, 16 hours, different concentrations. As for the experimental part:
To visualize dendritic spines, 14 DIV hippocampal neurons at low density (5,000 cells per 35 mm dish) were exposed to 7PA2 conditioned media (CM), which contains naturally secreted Aβ, or CHO control media or for 16 h, with or without cotreatment with the two inhibitor compounds, followed by immunocytochemistry with MAP2 and DAPI counterstaining.
To explore the potential biological effects of compound 22 in a TRPC3 related disease model, its neuroprotective ability in primary cultured neurons (14 DIV prepared from E17 rats as described) was evaluated. The effects on neuron dendritic morphology were measured by imaging. Mature hippocampal neurons (DIV=14) were treated with CHO control medium, or naturally secreted Aβ-containing conditioned medium (7PA2), or in combination with compound 22 or Pyr3 at different concentrations, for 16 hours, followed by immunocytochemistry using an antibody against MAP2 and DAPI (data not shown). […] Hippocampal neurons (DIV=14) were treated with compound 22 or Pyr3 alone at different concentrations, followed by immunocytochemistry staining with MAP2 and DAPI (data not shown).

A short description of series [3]: metabolic stability in mouse liver microsomes. The series is classed as in vitro ADME. To be noted: mouse, microsomes. How it is done:
The metabolic stability of compound 22 was tested prior to the next phase of in vivo study. […] The maximum tolerated dose (MTD) study was subsequently performed to investigate its in vivo toxicity (FIGS. 4A and 4B). The second major limitation of Pyr3 is its toxicity due to its alkylating tail moiety. While replacing only the fast-metabolizing head ester group in Pyr3 with a stable amide (compound 79) improved metabolic stability, a single IP injection of compound 79 at 200 mg/kg killed all mice within 24 h.

Molecules are shown by their SMILES.

Usually half-life stands for how long it takes for the measured level to halve.

T1 sequence (O75762 whole entry): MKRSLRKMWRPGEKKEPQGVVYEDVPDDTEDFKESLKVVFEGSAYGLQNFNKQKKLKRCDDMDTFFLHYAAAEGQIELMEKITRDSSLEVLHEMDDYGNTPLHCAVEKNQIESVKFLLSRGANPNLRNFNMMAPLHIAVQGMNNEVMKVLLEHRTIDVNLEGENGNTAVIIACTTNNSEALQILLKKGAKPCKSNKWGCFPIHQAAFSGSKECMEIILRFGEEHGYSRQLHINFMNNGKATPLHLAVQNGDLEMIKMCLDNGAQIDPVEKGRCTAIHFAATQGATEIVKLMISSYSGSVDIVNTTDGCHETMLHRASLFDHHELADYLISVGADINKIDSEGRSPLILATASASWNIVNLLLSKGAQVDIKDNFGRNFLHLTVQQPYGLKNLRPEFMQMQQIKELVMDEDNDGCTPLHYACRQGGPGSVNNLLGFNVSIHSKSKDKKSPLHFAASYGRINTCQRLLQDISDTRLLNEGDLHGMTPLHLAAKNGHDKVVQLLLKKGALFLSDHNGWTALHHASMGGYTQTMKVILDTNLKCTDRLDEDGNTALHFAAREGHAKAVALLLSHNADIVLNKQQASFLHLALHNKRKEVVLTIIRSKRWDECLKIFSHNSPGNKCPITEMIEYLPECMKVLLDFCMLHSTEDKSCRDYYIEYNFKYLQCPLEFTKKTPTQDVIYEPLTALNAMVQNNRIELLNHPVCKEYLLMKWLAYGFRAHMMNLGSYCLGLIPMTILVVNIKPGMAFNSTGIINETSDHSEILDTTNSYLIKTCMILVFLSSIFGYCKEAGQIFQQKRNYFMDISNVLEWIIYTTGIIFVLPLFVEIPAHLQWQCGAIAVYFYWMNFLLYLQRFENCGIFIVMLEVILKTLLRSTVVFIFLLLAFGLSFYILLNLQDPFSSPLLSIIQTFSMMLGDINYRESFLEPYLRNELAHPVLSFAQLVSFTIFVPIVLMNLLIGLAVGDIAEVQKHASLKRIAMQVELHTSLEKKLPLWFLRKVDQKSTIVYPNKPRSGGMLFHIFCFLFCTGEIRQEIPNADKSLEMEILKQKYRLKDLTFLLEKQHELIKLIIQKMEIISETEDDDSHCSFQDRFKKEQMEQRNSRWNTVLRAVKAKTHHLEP

Consider `CCNC(=O)c1cnn(-c2ccc(-n3ccc(Cl)c(Cl)c3=O)cc2)c1C(F)(F)F` [Compound 22], for which the inhibition at 10 µM in series [1] is less than 5%. The “protection against Aβ-induced damage to dendrites (MAP2/DAPI)” value in series [2] is given as “protect against Aβ-induced damage to dendrites”. In series [3], this compound registered a half-life of more than 4 h.

The values above are taken from patent US20230265068A1, “TRANSIENT RECEPTOR POTENTIAL CANONICAL 3 INHIBITORS AND METHODS OF USE THEREOF” (University of Tennessee Research Foundation, priority 2020, published 2023).
